Assay results from patent US12421211B2, “Heterocyclic compounds” (Hoffmann-La Roche Inc., priority 2021, dated 2025).
Counter-ions that a name gives are not always drawn.

These molecules were tested on Acinetobacter baumannii ATCC17961 (assay: Antimicrobial susceptibility testing: 90% growth inhibitory concentration (IC90) determination). Conditions: Acinetobacter baumannii, ATCC17961, 16 h, 90% growth inhibitory concentration, Acinetobacter baumannii ATCC17961, Iso-Sensitest broth, OD 600 nm over 16 h; read-out: ATCC 17961 IC90.
Type: cell-based
Summary of the method: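 Growth inhibition derived in log phase from OD600 kinetics (every 20 minutes, 16h, 35±2° C) of ATCC17961 in Iso-Sensitest medium, inoculum ~5×10^5 CFU/ml. Compounds tested as twofold series, 10 points (e.g. 50 to 0.097 μM final); IC90 and IC50 reported.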

SMILES | IC90
COCCn1ncc(-c2ccc(-c3cnc(C(=O)Nc4ccc(C(=O)N5CCN(C(=O)CN(C)C)CC5)c(C)c4)n3C)cc2)c1C [Example E14, N-[4-[4-[2-(dimethylamino)acetyl]piperazine-1-carbonyl]-3-methyl-phenyl]-5-[4-[1-(2-methoxyethyl)-5-methyl-pyrazol-4-yl]phenyl]-1-methyl-imidazole-2-carboxamide] | 270 nM
Cc1n[nH]cc1-c1ccc(-c2cnc(C(=O)Nc3ccc(C(=O)N4CCN(C(=O)CN(C)C)CC4)c(Cl)c3)n2C)cc1 [Example E15, N-[3-chloro-4-[4-[2-(dimethylamino)acetyl]piperazine-1-carbonyl]phenyl]-1-methyl-5-[4-(3-methyl-1H-pyrazol-4-yl)phenyl]imidazole-2-carboxamide; formic acid] | 180 nM
Cc1n[nH]c(C)c1-c1ccc(-c2cnc(C(=O)Nc3ccc(C(=O)N4CCN(C(=O)CN(C)C)CC4)c(Cl)c3)n2C)cc1 [Example E16, N-[3-chloro-4-[4-[2-(dimethylamino)acetyl]piperazine-1-carbonyl]phenyl]-5-[4-(3,5-dimethyl-1H-pyrazol-4-yl)phenyl]-1-methyl-imidazole-2-carboxamide] | 230 nM
COc1ccc(-c2[nH]ncc2-c2ccc(-c3cnc(C(=O)Nc4ccc(C(=O)N5CCN(C(=O)C6CCNCC6)CC5)c(Cl)c4)n3C)c(F)n2)cc1 [Example E17, N-[3-chloro-4-[4-(piperidine-4-carbonyl)piperazine-1-carbonyl]phenyl]-5-[2-fluoro-6-[5-(4-methoxyphenyl)-1H-pyrazol-4-yl]-3-pyridyl]-1-methyl-imidazole-2-carboxamide; formic acid] | 710 nM
Cn1c(-c2ccc(-c3cn[nH]c3)nc2F)cnc1C(=O)Nc1ccc(C(=O)N2CCN(C(=O)C3CCNCC3)CC2)c(Cl)c1 [Example E18, N-[3-chloro-4-[4-(piperidine-4-carbonyl)piperazine-1-carbonyl]phenyl]-5-[2-fluoro-6-(1H-pyrazol-4-yl)-3-pyridyl]-1-methyl-imidazole-2-carboxamide] | 820 nM
Cc1n[nH]cc1-c1ccc(-c2cnc(C(=O)Nc3ccc(C(=O)N4CCN(C(=O)C5CCNCC5)CC4)c(Cl)c3)n2C)c(F)c1F [Example E19, N-[3-chloro-4-[4-(piperidine-4-carbonyl)piperazine-1-carbonyl]phenyl]-5-[2,3-difluoro-4-(3-methyl-1H-pyrazol-4-yl)phenyl]-1-methyl-imidazole-2-carboxamide] | 130 nM
Cn1cc(-c2ccc(-c3cnc(C(=O)Nc4ccc(C(=O)N5CCN(C(=O)C6CCNCC6)CC5)c(Cl)c4)n3C)c(F)c2F)cn1 [Example E20, N-[3-chloro-4-[4-(piperidine-4-carbonyl)piperazine-1-carbonyl]phenyl]-5-[2,3-difluoro-4-(1-methyl-pyrazol-4-yl)phenyl]-1-methyl-imidazole-2-carboxamide] | 530 nM
COCCn1cc(-c2ccc(-c3cnc(C(=O)Nc4ccc(C(=O)N5CCN(C(=O)C6CCNCC6)CC5)c(Cl)c4)n3C)c(F)c2F)cn1 [Example E21, N-[3-chloro-4-[4-(piperidine-4-carbonyl)piperazine-1-carbonyl]phenyl]-5-[2,3-difluoro-4-[1-(2-methoxyethyl)pyrazol-4-yl]phenyl]-1-methyl-imidazole-2-carboxamide] | 290 nM
COCCn1ncc(-c2ccc(-c3cnc(C(=O)Nc4ccc(C(=O)N[C@H]5[C@@H]6CN(C(=O)N[C@@H]7CNC[C@H]7O)C[C@@H]65)c(Cl)c4)n3C)c(F)c2F)c1C [Example E22, (1S,5R)-6-[[2-chloro-4-[[5-[2,3-difluoro-4-[1-(2-methoxyethyl)-5-methyl-pyrazol-4-yl]phenyl]-1-methyl-imidazole-2-carbonyl]amino]benzoyl]amino]-N-[(3R,4R)-4-hydroxypyrrolidin-3-yl]-3-azabicyclo[3.1.0] hexane-3-carboxamide] | 59 nM
Cn1c(-c2ccc(-c3cn[nH]c3)cc2)cnc1C(=O)Nc1ccc(C(=O)N2CCN(C(=O)C3CCNCC3)CC2)c(Cl)c1 [Example E23, N-[3-chloro-4-[4-(piperidine-4-carbonyl)piperazine-1-carbonyl]phenyl]-1-methyl-5-[4-(1H-pyrazol-4-yl)phenyl] imidazole-2-carboxamide] | 140 nM

Now from value to molecule:

IC90 | SMILES
330 nM | Cn1c(-c2ccc(-c3cn(CCC(N)=O)nc3C(F)(F)F)c(F)c2F)cnc1C(=O)Nc1ccc(C(=O)N2CCN(C(=O)C3CC[N+](C)(C)CC3)CC2)c(Cl)c1 [Example F1, 5-[4-[1-(3-amino-3-oxo-propyl)-3-(trifluoromethyl)pyrazol-4-yl]-2,3-difluoro-phenyl]-N-[3-chloro-4-[4-(1,1-dimethylpiperidin-1-ium-4-carbonyl)piperazine-1-carbonyl]phenyl]-1-methyl-imidazole-2-carboxamide; formate]
65 nM | COCCn1ncc(-c2ccc(-c3cnc(C(=O)Nc4ccc(C(=O)N5CCN(C(=O)C6CC[N+](C)(C)CC6)CC5)c(Cl)c4)n3C)c(Cl)c2F)c1C [Example F2, N-[3-chloro-4-[4-(1,1-dimethylpiperidin-1-ium-4-carbonyl)piperazine-1-carbonyl]phenyl]-5-[2-chloro-3-fluoro-4-[1-(2-methoxyethyl)-5-methyl-pyrazol-4-yl]phenyl]-1-methyl-imidazole-2-carboxamide; formate]
120 nM | COCCn1ncc(-c2ccc(-c3cnc(C(=O)Nc4ccc(C(=O)N5CCN(C(=O)C6CC[N+](C)(C)CC6)CC5)c(Cl)c4)n3C)c(C)c2F)c1C [Example F3, N-[3-chloro-4-[4-(1,1-dimethylpiperidin-1-ium-4-carbonyl)piperazine-1-carbonyl]phenyl]-5-[3-fluoro-4-[1-(2-methoxyethyl)-5-methyl-pyrazol-4-yl]-2-methyl-phenyl]-1-methyl-imidazole-2-carboxamide; formate]
830 nM | Cc1c(-c2ccc(-c3cnc(C(=O)Nc4ccc(C(=O)N5CCN(C(=O)[C@@H]6C[C@@H](O)C[N+]6(C)C)CC5)c(Cl)c4)n3C)c(F)c2F)cnn1CCC(C)(C)O [Example F4, N-[3-chloro-4-[4-[(2S,4R)-4-hydroxy-1,1-dimethyl-pyrrolidin-1-ium-2-carbonyl]piperazine-1-carbonyl]phenyl]-5-[2,3-difluoro-4-[1-(3-hydroxy-3-methyl-butyl)-5-methyl-pyrazol-4-yl]phenyl]-1-methyl-imidazole-2-carboxamide; formate]
280 nM | CNC(=O)Cn1cc(-c2ccc(-c3cnc(C(=O)Nc4ccc(C(=O)N5CCN(C(=O)[C@@H]6C[C@@H](O)C[N+]6(C)C)CC5)c(Cl)c4)n3C)c(F)c2F)c(C)n1 [Example F5, N-[3-chloro-4-[4-[(2S,4R)-4-hydroxy-1,1-dimethyl-pyrrolidin-1-ium-2-carbonyl]piperazine-1-carbonyl]phenyl]-5-[2,3-difluoro-4-[3-methyl-1-[2-(methylamino)-2-oxo-ethyl]pyrazol-4-yl]phenyl]-1-methyl-imidazole-2-carboxamide; formate]
570 nM | Cn1c(-c2ccc(-c3cn(CCOC(F)F)nc3C(F)(F)F)c(F)c2F)cnc1C(=O)Nc1ccc(C(=O)N2CCN(C(=O)C3CC[N+](C)(C)CC3)CC2)c(Cl)c1 [Example F6, N-[3-chloro-4-[4-(1,1-dimethylpiperidin-1-ium-4-carbonyl)piperazine-1-carbonyl]phenyl]-5-[4-[1-[2-(difluoromethoxy)ethyl]-3-(trifluoro-methyl)pyrazol-4-yl]-2,3-difluoro-phenyl]-1-methyl-imidazole-2-carboxamide; formate]
